Assay results reported in PubChem BioAssay AID2060344 (Molecular Pharmacology Branch, DTP, NCI, 2025).

System: SK-MEL-2 multi-cell spheroids, viability
Assay: Anticancer human tumor SK-MEL-2 cell line growth inhibition [TAK];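 note: spheroids exposed to drugs for seven days before readout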;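 for viability, T/C: percent of DMSO vehicle control luminescence so 100% = untreated viability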
Conditions: for IC50: curve of first compound; for viability, T/C: stronger effect = lower value; active = viability on the fitted dose curve at most 10% of control; inactive = the rest
Text: Combinatorial screen of targeted agents with TAK-243 and ipatasertib in multi-cell type tumor spheroids
A high-throughput screen of multi-cell type tumor spheroids was designed to identify active combinations of targeted small molecules and TAK-243 or ipatasertib. Complex spheroids include a stromal component modeled by human endothelial cells (HUVEC) and fibroblasts modeled by human mesenchymal stem cells (MSCs). The concentration ranges selected for each drug and investigational agent were based upon clinically achievable concentrations if the clinical Cmax of the agent was known.
Compounds. The drugs and investigational agents: TAK-243 (785004), ipatasertib (767898), everolimus (733504), selumetinib (741078), bortezomib (756655), trametinib (758246), ixazomib (758254), vemurafenib (761431), dabrafenib (764134), sapanisertib (764658), alpelisib (765974), and copanlisib (816437), were obtained from the National Cancer Institute (NCI) Developmental Therapeutics Program Chemical Repository. The FDA-approved anticancer drug set is available from the NCI Developmental Therapeutics Program. […] The stock solutions were prepared in dimethyl sulfoxide (DMSO, Sigma-Aldrich, St. Louis, MO, cat. D2650) at 800-fold the tested concentration and stored at -70 degrees C prior to their use. All drugs and investigational agents were tested over a range starting from a high concentration at or near the clinical Cmax and decreasing in half-log increments. If the clinical Cmax for an agent had not been determined, the highest concentration tested was 10 microM.
NCI60 Cell Culture. NCI60 cell lines were obtained from the NCI Developmental Therapeutics Program Tumor Repository. For each lot of cells, the Repository performed Applied Biosystems AmpFLSTR Identifiler testing with PCR amplification to confirm consistency with the published Identifier STR profile for each cell line. Cells were kept in continuous culture for no more than 20 passages. The optimal seeding densities for each of the cell lines at each time point assessed were determined prior to performing the concentration response studies. Briefly, the NCI60 human tumor lines were grown as monolayers in RPMI 1640 medium supplemented with 10% FBS and 2 mmol/L L-glutamine.
An additional 2 lines were from the NCI60 cell line panel including melanomas, MALME-3M and SK-MEL-2. Pooled donor human umbilical vein endothelial cells (HUVEC, Lonza, cat. CC-2519) and human mesenchymal stem cells (hMSC, Lonza, cat. PT-2501) were purchased from Lonza (Walkersville, MD).
PDMR cell lines were grown in complete medium (DC medium): Dulbecco's modified Eagle's medium (DMEM)/F12 supplemented with 5% fetal bovine serum (FBS), 2 mM L-glutamine, 100 U/mL penicillin and 100 µg/ml streptomycin, 0.4 µg/ml hydrocortisone, 10 ng/ml epidermal growth factor (EGF) recombinant human protein, 24 µg/mL adenine, and 0.1 mg/mL primocin. During culture from frozen stock vials, PDMR cells were cultured in the same medium containing 10 µM Y-27632 (see Table 3). The PDCs were cultured in complete DMEM/F12 media without 10 microM Y-27632 dihydrochloride for at least two passages prior to the screen. The pooled donor HUVEC and hMSC were cultured in endothelial cell growth medium 2 (PromoCell, Heidelberg, Germany, cat. C-22011) and mesenchymal stem cell growth medium 2 (PromoCell, cat. C-28009), respectively. For all experiments, HUVEC and hMSC were used at passages </=5.
For the pre-screen, cell seeding densities were determined from a titration spanning the range from 5,000 to 313 cells per well. The mct-spheroids including 60% malignant cells, 25% HUVEC and 15% MSC dispensed as a mixture into U-bottom Ultra-Low Attachment 384-well plates (Corning, NY)
High-throughput Drug Combination Screening.
Prior to their inoculation into 384-well plates, malignant cells, HUVEC, and hMSC were removed from T flasks using TrypLE express (Thermo Fisher Scientific, cat. 12605036) and harvested by centrifugation for 5 min at 233 x g. […]

CC(C)n1nc(-c2ccc3oc(N)nc3c2)c2c(N)ncnc21 + CC(C)NCC(C(=O)N1CCN(c2ncnc3c2C(C)CC3O)CC1)c1ccc(Cl)cc1
active: viability, T/C (second compound 30 µM, first compound 0.1 µM) 9.08%
0.000858 µM: IC50 (second compound 30 µM)
inactive: viability, T/C (second compound 0.3 µM, first compound 0.000316 µM) 98.6% | viability, T/C (second compound 0.3 µM, first compound 0.001 µM) 92.4% | viability, T/C (second compound 0.3 µM, first compound 0.00316 µM) 82.1% | viability, T/C (second compound 0.3 µM, first compound 0.01 µM) 76.8% | viability, T/C (second compound 0.3 µM, first compound 0.0316 µM) 45.8% | viability, T/C (second compound 0.3 µM, first compound 0.1 µM) 25.5% | viability, T/C (second compound 0.949 µM, first compound 0.000316 µM) 85.6% | viability, T/C (second compound 0.949 µM, first compound 0.001 µM) 82% | viability, T/C (second compound 0.949 µM, first compound 0.00316 µM) 58.7% | viability, T/C (second compound 0.949 µM, first compound 0.01 µM) 55.6% | viability, T/C (second compound 0.949 µM, first compound 0.0316 µM) 33.4% | viability, T/C (second compound 0.949 µM, first compound 0.1 µM) 19% | viability, T/C (second compound 3 µM, first compound 0.000316 µM) 66% | viability, T/C (second compound 3 µM, first compound 0.001 µM) 62.3% | viability, T/C (second compound 3 µM, first compound 0.00316 µM) 48.5% | viability, T/C (second compound 3 µM, first compound 0.01 µM) 37.8% | viability, T/C (second compound 3 µM, first compound 0.0316 µM) 27.2% | viability, T/C (second compound 3 µM, first compound 0.1 µM) 12.5% | viability, T/C (second compound 9.49 µM, first compound 0.000316 µM) 56.3% | viability, T/C (second compound 9.49 µM, first compound 0.001 µM) 54.4% | viability, T/C (second compound 9.49 µM, first compound 0.00316 µM) 42.2% | viability, T/C (second compound 9.49 µM, first compound 0.01 µM) 34.7% | viability, T/C (second compound 9.49 µM, first compound 0.0316 µM) 25.1% | viability, T/C (second compound 9.49 µM, first compound 0.1 µM) 13.6% | viability, T/C (second compound 30 µM, first compound 0.000316 µM) 52.6% | viability, T/C (second compound 30 µM, first compound 0.001 µM) 51.4% | viability, T/C (second compound 30 µM, first compound 0.00316 µM) 41.2% | viability, T/C (second compound 30 µM, first compound 0.01 µM) 32.9% | viability, T/C (second compound 30 µM, first compound 0.0316 µM) 20.7%
0.0295 µM: IC50 (second compound 0.3 µM)
0.00131 µM: IC50 (second compound 9.49 µM)
0.00322 µM: IC50 (second compound 3 µM)
0.0107 µM: IC50 (second compound 0.949 µM)

CCCS(=O)(=O)Nc1ccc(F)c(C(=O)c2c[nH]c3ncc(-c4ccc(Cl)cc4)cc23)c1F + CC(C)NCC(C(=O)N1CCN(c2ncnc3c2C(C)CC3O)CC1)c1ccc(Cl)cc1
active: viability, T/C (second compound 3 µM, first compound 100 µM) 10.9% | viability, T/C (second compound 30 µM, first compound 31.6 µM) 2.99% | viability, T/C (second compound 30 µM, first compound 100 µM) 2.24%
24 µM: IC50 (second compound 0.949 µM)
25.9 µM: IC50 (second compound 0.3 µM)
18.8 µM: IC50 (second compound 30 µM)
13.1 µM: IC50 (second compound 3 µM)
inactive: viability, T/C (second compound 0.3 µM, first compound 0.316 µM) 127% | viability, T/C (second compound 0.3 µM, first compound 1 µM) 108% | viability, T/C (second compound 0.3 µM, first compound 3.16 µM) 105% | viability, T/C (second compound 0.3 µM, first compound 10 µM) 118% | viability, T/C (second compound 0.3 µM, first compound 31.6 µM) 15.1% | viability, T/C (second compound 0.3 µM, first compound 100 µM) 57.5% | viability, T/C (second compound 0.949 µM, first compound 0.316 µM) 121% | viability, T/C (second compound 0.949 µM, first compound 1 µM) 110% | viability, T/C (second compound 0.949 µM, first compound 3.16 µM) 107% | viability, T/C (second compound 0.949 µM, first compound 10 µM) 80.3% | viability, T/C (second compound 0.949 µM, first compound 31.6 µM) 31.6% | viability, T/C (second compound 0.949 µM, first compound 100 µM) 49.3% | viability, T/C (second compound 3 µM, first compound 0.316 µM) 115% | viability, T/C (second compound 3 µM, first compound 1 µM) 110% | viability, T/C (second compound 3 µM, first compound 3.16 µM) 105% | viability, T/C (second compound 3 µM, first compound 10 µM) 61.1% | viability, T/C (second compound 3 µM, first compound 31.6 µM) 14.3% | viability, T/C (second compound 9.49 µM, first compound 0.316 µM) 112% | viability, T/C (second compound 9.49 µM, first compound 1 µM) 120% | viability, T/C (second compound 9.49 µM, first compound 3.16 µM) 107% | viability, T/C (second compound 9.49 µM, first compound 10 µM) 114% | viability, T/C (second compound 9.49 µM, first compound 31.6 µM) 120% | viability, T/C (second compound 9.49 µM, first compound 100 µM) 10.4% | viability, T/C (second compound 30 µM, first compound 0.316 µM) 121% | viability, T/C (second compound 30 µM, first compound 1 µM) 124% | viability, T/C (second compound 30 µM, first compound 3.16 µM) 64.3% | viability, T/C (second compound 30 µM, first compound 10 µM) 119%
64.5 µM: IC50 (second compound 9.49 µM)
